{"source": "paper PMC9502528", "about": "“Stability Study of Alpinia galanga Constituents and Investigation of Their Membrane Permeability by ChemGPS-NP and the Parallel Artificial Membrane Permeability Assay” (Pharmaceutics, 2022)", "key": {"[1]": {"assay": "PAMPA-BBB (parallel artificial membrane permeability assay, porcine polar brain lipid extract)", "assay_type": "in vitro ADME", "protocol": "The test solutions were prepared with DMSO at the concentration of 10.0 mM. These were diluted with PBS buffer pH = 7.4 (PAMPA-BBB) or pH = 6.8 (PAMPA-GI) to obtain the donor solutions (297.0 μL buffer + 3.0 μL DMSO solution) and filtered through Phenex-RC 15 mm, 0.2 μm syringe filters (Gen-Lab Ltd., Budapest, Hungary). A parallel artificial membrane permeability assay (PAMPA) system was used to determine the effective permeability (Pe) for the compounds of interest. Each well of the top plate (96-well polycarbonate-based filter donor plates (Multiscreen™-IP, MAIPN4510, pore size 0.45 μm; Millipore)) was coated with 5 μL of porcine polar brain lipid extract (PBLE) solution (8.0 mg PBLE + 4.0 mg cholesterol dissolved in 300.0 μL n-dodecane) for PAMPA-BBB; or with 5 μL of mixture of 8.0 mg phosphatidylcholine + 4.0 mg cholesterol dissolved in 300.0 μL n-dodecane for PAMPA-GI. Then, 150.0 μL of the filtrate was placed on the membrane. The bottom plate (96-well PTFE acceptor plates (Multiscreen Acceptor Plate, MSSACCEPTOR; Millipore)), was filled with 300.0 μL buffer solution (0.01 M PBS buffer, pH = 7.4). The donor and acceptor plates were fit, and then the sandwich system was incubated at 37 °C for 4 h in a Stat-Fax 2200 (Awareness Technology, Palm City, FL, USA). After the incubation, the PAMPA plates were separated and the compound concentrations in the donor (CD(t)) and acceptor (CA(t)) solutions, as well as in the donor solution at zero time point (CD(0)), were determined by UPLC-DAD. […] At iso-pH conditions (PAMPA-BBB), the effective permeability and the membrane retention of drugs were calculated by the following equation [21]:(1) Pe =−2.303/A(t−τSS)·(VA·VD/VA+VD)·lg[1−(VA+VD/(1−MR)·VD)×(CA(t)/CD(0))], where Pe is the effective permeability coefficient (cm/s), A is the filter area (0.24 cm^2), VD and VA are the volumes in the donor (0.15 cm^3) and acceptor phases (0.30 cm^3), t is the incubation time (s), τSS is the time (s) to reach steady-state (240 s), CD(t) is the concentration (mol/cm^3) of the compound in the donor phase at time t, CD(0) is the concentration (mol/cm^3) of the compound in the donor phase at time 0, and MR is the estimated membrane retention factor (the estimated mole fraction of solute lost to the membrane):(2) MR=1−CD(t)/CD(0)−VA/VDCA(t)/CD(0)\nAll experiments were performed in three triplicates on three consecutive days (n = 9)."}, "[2]": {"system": "nitric oxide (NO) production in mouse peritoneal macrophages", "parameters": "method as in PMID 15930771", "details": "cited from earlier work"}, "[3]": {"assay": "PAMPA-GI of the A. galanga ethyl acetate extract", "assay_type": "in vitro ADME", "details": "donor PBS pH 6.8, 37 °C, 4 h, UHPLC-DAD", "protocol": "The test solutions were prepared with DMSO at the concentration of 10.0 mM. These were diluted with PBS buffer pH = 7.4 (PAMPA-BBB) or pH = 6.8 (PAMPA-GI) to obtain the donor solutions (297.0 μL buffer + 3.0 μL DMSO solution) and filtered through Phenex-RC 15 mm, 0.2 μm syringe filters (Gen-Lab Ltd., Budapest, Hungary). A parallel artificial membrane permeability assay (PAMPA) system was used to determine the effective permeability (Pe) for the compounds of interest. Each well of the top plate (96-well polycarbonate-based filter donor plates (Multiscreen™-IP, MAIPN4510, pore size 0.45 μm; Millipore)) was coated with 5 μL of porcine polar brain lipid extract (PBLE) solution (8.0 mg PBLE + 4.0 mg cholesterol dissolved in 300.0 μL n-dodecane) for PAMPA-BBB; or with 5 μL of mixture of 8.0 mg phosphatidylcholine + 4.0 mg cholesterol dissolved in 300.0 μL n-dodecane for PAMPA-GI. Then, 150.0 μL of the filtrate was placed on the membrane. The bottom plate (96-well PTFE acceptor plates (Multiscreen Acceptor Plate, MSSACCEPTOR; Millipore)), was filled with 300.0 μL buffer solution (0.01 M PBS buffer, pH = 7.4). […] After the incubation, the PAMPA plates were separated and the compound concentrations in the donor (CD(t)) and acceptor (CA(t)) solutions, as well as in the donor solution at zero time point (CD(0)), were determined by UPLC-DAD. […]"}, "[4]": {"assay": "Stability analyses in PBS (pH 7.4) at 37 °C for 4 h, UPLC-DAD", "assay_type": "physicochemical", "details": "for percentage difference between the initial and final concentrations: PBS pH 7.4, 37 °C, 4 h, 100 μM; for stability in aqueous media: aqueous media (PBS)", "protocol": "The isolation of 8 compounds (compounds 1, 2, […], 5, 6, 7, 9, and 10) was carried out using flash chromatography and semi-preparative HPLC; the corresponding data is presented in the Supplementary Materials. For stability analyses, the stock solutions were prepared from the ethyl acetate extract (200 mg/mL) and from compounds 1, 2, 4, 5, 6, 7, 9, and 10 dissolved in dimethyl sulfoxide (DMSO) at the concentration of 10.0 mM. These were diluted 100-fold with PBS (Phosphate Buffer Saline; pH = 7.4). The samples were filtered through Phenex-RC 15 mm, 0.2 μm syringe filters (Gen-Lab Ltd., Budapest, Hungary). The solutions were incubated at 37 °C for 4 h; the decomposition was determined by UPLC-DAD. All experiments were performed in triplicates, on three consecutive days ([…]).\nThe eight isolated compounds (p-OH-benzaldehyde (1), trans-p-coumaryl-alcohol (2), p-coumaryl-aldehyde (4), galanganol A (5), galanganol B (6), trans-p-acetoxycinnamyl alcohol (7), 1′S-1′-acetoxychavicol acetate (9), and 1′S-1′-acetoxyeugenol acetate (10)) were identified by UHPLC-high-resolution Orbitrap® mass spectrometry (HR-MS) and by NMR spectroscopy; the corresponding data is presented in the Supplementary Materials, while Figure 3 depicts the structures of the isolated compounds. In order to answer the questions raised about the possible conversion and decomposition of the A. galanga constituents during the PAMPA-BBB experiment, investigation of the chemical stability of the isolated compounds was carried out in PBS medium (pH 7.4) at 37 °C for 4 h. For the analysis of the samples acquired in the stability experiments, the aforementioned UHPLC-DAD method that had previously been validated for linearity, precision, and accuracy was utilized (Tables S1 and S2)."}, "[5]": {"parameters": "method as in PMID 10564034", "details": "5% ethanol-containing aqueous solution at 60 °C; cited from earlier work"}, "[6]": {"details": "PAMPA-BBB, pH 7.4, 37 °C, 4 h, Pe in cm/s, n = 9"}, "[7]": {"details": "pig, PAMPA, pH 7.4, Table S4 sheet Galangal compounds, PAMPA-BBB, read-out: logPe (converted)"}}, "note": "Like-named read-outs stand apart in the source and are kept apart here."}
{"smiles": "O=Cc1ccc(O)cc1", "note": "[Compound 1, p-OH-benzaldehyde]", "values": [{"measurement": "log Pe", "setting": "[1]; [6]", "value": "−5.56 ± 0.07"}, {"measurement": "PAMPA-BBB (blood–brain barrier permeability)", "setting": "[1]; cutoff log Pe −6.0", "value": "+"}, {"measurement": "Papp at 4 h, 100 µM", "setting": "[1]; [7]", "value": 2.75, "unit": "×10⁻⁶ cm/s"}]}
{"smiles": "OC/C=C/c1ccc(O)cc1", "note": "[Compound 2, trans-p-coumaryl-alcohol]", "values": [{"measurement": "log Pe", "setting": "[1]; [6]", "value": "−5.86 ± 0.23"}, {"measurement": "PAMPA-BBB (blood–brain barrier permeability)", "setting": "[1]; cutoff log Pe −6.0", "value": "+"}, {"measurement": "Papp at 4 h, 100 µM", "setting": "[1]; [7]", "value": 1.38, "unit": "×10⁻⁶ cm/s"}, {"measurement": "nitric oxide (NO) production inhibitory activity", "setting": "[2]", "value": "showed nitric oxide (NO) production inhibitory activities"}]}
{"smiles": "OC/C=C\\c1ccc(O)cc1", "note": "[Compound 3a, cis-p-coumaryl-alcohol]", "values": [{"measurement": "Papp at 4 h, 100 µM", "setting": "[1]; [7]", "value": 1.38, "unit": "×10⁻⁶ cm/s"}]}
{"smiles": "O=C/C=C/c1ccc(O)cc1", "note": "[Compound 4, p-coumaryl-aldehyde]", "values": [{"measurement": "PAMPA-BBB (blood–brain barrier permeability)", "setting": "[1]; PAMPA", "value": "+"}, {"measurement": "log Pe", "setting": "[1]; pig, PAMPA, 4 h, 100 µM, pH 7.4", "value": "−5.25 ± 0.27"}, {"measurement": "Papp at 4 h, 100 µM", "setting": "[1]; pig, PAMPA, pH 7.4, logPe", "value": 5.62, "unit": "×10⁻⁶ cm/s"}, {"measurement": "nitric oxide (NO) production inhibitory activity", "setting": "[2]", "value": "showed nitric oxide (NO) production inhibitory activities"}]}
{"smiles": "OC[C@@H](C/C=C/c1ccc(O)cc1)[C@H](O)c1ccc(O)cc1", "note": "[Compound 5, galanganol A]", "values": [{"measurement": "detection in the acceptor solution (PAMPA-GI)", "setting": "[3]", "value": "except for compounds 5 and 6"}, {"measurement": "PAMPA-BBB (blood–brain barrier permeability)", "setting": "[1]; cutoff log Pe −6.0", "value": "−"}, {"measurement": "Papp at 4 h, 100 µM", "setting": "[1]; [7]", "value": 0.776, "unit": "×10⁻⁶ cm/s"}]}
{"smiles": "OC[C@H](C/C=C/c1ccc(O)cc1)[C@H](O)c1ccc(O)cc1", "note": "[Compound 6, galanganol B]", "values": [{"measurement": "detection in the acceptor solution (PAMPA-GI)", "setting": "[3]", "value": "except for compounds 5 and 6"}, {"measurement": "PAMPA-BBB (blood–brain barrier permeability)", "setting": "[1]; cutoff log Pe −6.0", "value": "−"}, {"measurement": "Papp at 4 h, 100 µM", "setting": "[1]; pig, PAMPA, pH 7.4, PAMPA-BBB, pH 7.4, 37 °C, 4 h, Pe in cm/s, n = 9, read-out: log Pe (converted)", "value": 0.724, "unit": "×10⁻⁶ cm/s"}, {"measurement": "Papp at 4 h, 100 µM", "setting": "[1]; [7]", "value": 0.776, "unit": "×10⁻⁶ cm/s"}, {"measurement": "nitric oxide (NO) production inhibitory activity", "setting": "[2]", "value": "showed nitric oxide (NO) production inhibitory activities"}]}
{"smiles": "CC(=O)Oc1ccc(/C=C/CO)cc1", "note": "[Compound 7, trans-p-acetoxycinnamyl alcohol]", "values": [{"measurement": "percentage difference between the initial and final concentrations", "setting": "[4]", "value": 8.04, "unit": "%"}, {"measurement": "stability in aqueous media", "setting": "[4]", "value": "unstable"}, {"measurement": "Papp at 4 h, 100 µM", "setting": "[1]; [7]", "value": 31.6, "unit": "×10⁻⁶ cm/s"}]}
{"smiles": "CC(=O)Oc1ccc(/C=C\\CO)cc1", "note": "[Compound 8a, cis-p-acetoxycinnamyl alcohol]", "values": [{"measurement": "Papp at 4 h, 100 µM", "setting": "[1]; [7]", "value": 31.6, "unit": "×10⁻⁶ cm/s"}]}
{"smiles": "C=C[C@H](OC(C)=O)c1ccc(OC(C)=O)cc1", "note": "[Compound 9, 1′S-1′-acetoxychavicol acetate]", "values": [{"measurement": "percentage difference between the initial and final concentrations", "setting": "[4]", "value": 57.78, "unit": "%"}, {"measurement": "stability in aqueous media", "setting": "[4]", "value": "unstable"}, {"measurement": "Papp at 4 h, 100 µM", "setting": "[1]; [7]", "value": 39.8, "unit": "×10⁻⁶ cm/s"}, {"measurement": "nitric oxide (NO) production inhibitory activity", "setting": "[2]", "value": "showed nitric oxide (NO) production inhibitory activities"}, {"measurement": "stability in aqueous ethanol", "setting": "[5]", "value": "instability"}]}
{"smiles": "C=C[C@H](OC(C)=O)c1ccc(OC(C)=O)c(OC)c1", "note": "[Compound 10, 1′S-1′-acetoxyeugenol acetate]", "values": [{"measurement": "percentage difference between the initial and final concentrations", "setting": "[4]", "value": 14.32, "unit": "%"}, {"measurement": "stability in aqueous media", "setting": "[4]", "value": "unstable"}, {"measurement": "Papp at 4 h, 100 µM", "setting": "[1]; [7]", "value": 50.1, "unit": "×10⁻⁶ cm/s"}, {"measurement": "nitric oxide (NO) production inhibitory activity", "setting": "[2]", "value": "showed nitric oxide (NO) production inhibitory activities"}]}
